Measured values as given in US7417169B2, “Amino alcohol derivatives, medicinal composition containing the same, and use of these” (Kissei Pharmaceutical Co., Ltd., priority 2003, dated 2008).

How the values were obtained:
Format in all cases: cell-based
[1] = molecular target: T1, human β1-adrenoceptor (Homo sapiens, UniProt P08588); test: Measurement of agonistic activities on human β1-adrenoceptor (cAMP accumulation in transfected CHO cells); details: CHO cells expressing human β1-adrenoceptor; for EC50: cAMP, concentration giving 50% of the maximum reaction of isoproterenol, read-out: β1 receptor EC50; for Emax: maximum reaction relative to isoproterenol (100%), read-out: β1 receptor I.A. (intrinsic activity)
T1 construct: Both ends of a domain including full length of human β1-adrenoceptor were amplified; expressed in transfected cells; host or cells: CHO cells (transient transfection of pCI-neo plasmid, Lipofectamine 2000)
T1 sequence (P08588 whole entry): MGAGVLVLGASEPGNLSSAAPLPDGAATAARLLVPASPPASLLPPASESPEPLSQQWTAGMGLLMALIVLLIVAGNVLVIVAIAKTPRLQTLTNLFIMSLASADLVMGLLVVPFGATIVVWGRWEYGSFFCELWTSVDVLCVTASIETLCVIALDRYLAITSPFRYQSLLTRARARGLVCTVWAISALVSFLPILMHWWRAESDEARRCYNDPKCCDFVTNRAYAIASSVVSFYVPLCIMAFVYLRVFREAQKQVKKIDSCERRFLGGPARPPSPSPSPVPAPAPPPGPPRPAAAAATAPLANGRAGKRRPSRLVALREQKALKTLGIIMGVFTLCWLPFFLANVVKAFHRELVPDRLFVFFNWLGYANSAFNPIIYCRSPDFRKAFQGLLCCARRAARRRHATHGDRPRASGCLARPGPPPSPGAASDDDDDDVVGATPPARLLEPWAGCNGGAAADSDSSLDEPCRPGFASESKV
Text: (§1) Measurement of Agonistic Activities on Human β1- and β2-Adrenoceptors
Both ends of a domain including full length of human β1-adrenoceptor were amplified on the basis of DNA base information that is registered with GenBank/EMBL data base as Accession No. J03019. DNA fragment which was amplified was inserted into a vector for cloning and amplified in Escherichia coli bacteria. The plasmid which was cloned was inserted into a vector pCI-neo (Promega) for protein expression and plasmid DNA was extracted and purified, then it was used for a preparation of the following expression cells.
1) Preparation of Human β1-Adrenoceptor Expressed Cells
(§2) The plasmid (320 ng) for expression which was obtained in the previous section was transfected into 5×10^4 CHO cells suspended in DMEM (Gibco-BRL: LIFE TECHNOLOGIES) containing 10% fetal bovine serum (Sanko Junyaku) by means of Lipofectoamine2000 (Invitrogen). These cells were dispensed in 96 well plate by 5×10^4 cells/100 μL per well and were cultured under an atmosphere of 5% CO2 at 37° C. for 24 hours, and were used for the assay.
(§3) 3. Measurement of Agonistic Activities on Human β1- and β2-Adrenoceptors
(§4) Test compounds were dissolved in 50% dimethyl sulfoxide to make a 10^−2 M solution. Then, a series of 1:10 dilutions containing a maximal dose of 2×10^−4 M were prepared using D-PBS (−) (Gibco-BRL: LIFE TECHNOLOGIES). The series were used for a testing sample to measure activity. The culture medium of CHO cells of previous section was removed and washed twice with 200 μL D-PBS (−) per well. After that, 50 μL of 3-isobutyl-1-methylxanthine (SIGMA, 1 mM) was added and leaved at rest for 5 minutes, and 50 μL of testing sample were added in them and they were incubated under an atomosphere of 5% CO2 at 37° C. for 30 minutes. cAMP concentrations accumulated in cells were reacted in cAMP-Screen (Applied Biosystems) and were detected by Microplate Luminometer TR717 (Applied Biosystems). The maximum reaction of isoproterenol, a positive contrast, was taken as a 100%, and the concentration of a test compound which gave reaction of the 50% was calculated as an EC50 value. In addition, the ratio of the maximum reaction of the test compound against the maximum reaction of isoproterenol was calculated as an intrinsic activity (I.A.).
(§5) (R)-3′-[[2-[[2-(3-chlorophenyl)-2-hydroxyethyl]aminoethoxy]-[1,1′-biphenyl]-3-carboxylic acid which was described in WO99/65877 was also examined as a comparison example.

[2] = molecular target: T2, human β3-adrenoceptor (Homo sapiens, UniProt P13945); test: Measurement of agonistic activities on human β3-adrenoceptor (cAMP accumulation in SK-N-MC cells); details: for EC50: SK-N-MC cells with CGP-20712A, cAMP, concentration giving 50% of the maximum reaction of isoproterenol, read-out: β3 receptor EC50; for Emax: SK-N-MC cells, maximum reaction relative to maximum reaction of isoproterenol (100%), read-out: β3 receptor I.A. (intrinsic activity)
T2 construct: SK—N-MC cells (American Type Culture Collection, 1×10^5cell/mL) were put in 96 well plates; host or cells: SK-N-MC cells
T2 sequence (P13945 whole entry): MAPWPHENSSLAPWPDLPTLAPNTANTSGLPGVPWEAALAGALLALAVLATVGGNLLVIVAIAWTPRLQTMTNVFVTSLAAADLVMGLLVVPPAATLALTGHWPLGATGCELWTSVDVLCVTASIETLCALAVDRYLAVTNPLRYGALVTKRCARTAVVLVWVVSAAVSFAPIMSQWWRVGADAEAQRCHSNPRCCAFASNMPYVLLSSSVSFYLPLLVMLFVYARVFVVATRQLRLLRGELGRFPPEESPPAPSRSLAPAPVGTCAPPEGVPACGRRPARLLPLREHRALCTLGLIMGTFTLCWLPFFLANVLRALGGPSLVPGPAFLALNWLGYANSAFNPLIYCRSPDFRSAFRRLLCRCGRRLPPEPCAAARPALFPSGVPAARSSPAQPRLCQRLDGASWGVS
Description: Measurement of Agonistic Activities on Human β3-Adrenoceptor
Test compounds were dissolved in 50% dimethyl sulfoxide to make a 10^−2 M solution. Then, a series of 1:10 dilutions containing a maximal dose of 1×10^−4 M were prepared using D-PBS (−) (Gibco-BRL: LIFE TECHNOLOGIES). The series were used for a testing sample to measure activity. SK—N-MC cells (American Type Culture Collection, 1×10^5cell/mL) were put in 96 well plates by 100 μL and were cultured for about 24 hours. Forty μL of D-PBS and 20 μL of CGP-20712A (FUNAKOSHI, 3×10^−6 mol/L D-PBS solution) were added in them and incubated for 20 minutes. After that, 20 μL of 3-isobutyl-1-methylxanthine (SIGMA, 1×10^−2 mol/L D-PBS solution) and 20 μL of testing sample were added in them and they were incubated under an atmosphere of 5% CO2 at 37° C. for 30 minutes. cAMP concentrations accumulated in cells were reacted in cAMP-Screen (Applied Biosystems) and were detected by Microplate Luminometer TR717 (Applied Biosystems). The maximum reaction of isoproterenol, a positive contrast, was taken as a 100%, and the concentration of a test compound which gave reaction of the 50% was calculated as an EC50 value. In addition, the ratio of the maximum reaction of the test compound against the maximum reaction of isoproterenol was calculated as an intrinsic activity (I.A.). (R)-3′-[[2-[[2-(3-chlorophenyl)-2-hydroxyethyl]aminoethoxy]-[1,1′-biphenyl]-3-carboxylic acid which was described in WO99/65877 was also examined as a comparison example.

[3] = molecular target: T3, human β2-adrenoceptor (Homo sapiens, UniProt P07550, E27Q/G16R); test: Measurement of agonistic activities on human β2-adrenoceptor (cAMP accumulation in transfected CHO cells); details: CHO cells expressing human β2-adrenoceptor; for Emax: maximum reaction relative to isoproterenol (100%), read-out: β2 receptor I.A. (intrinsic activity); for EC50: cAMP, concentration giving 50% of the maximum reaction of isoproterenol, read-out: β2 receptor EC50
T3 construct: expressed in transfected cells; host or cells: CHO cells (transient transfection, Lipofectamine 2000)
T3 sequence (P07550 whole entry G16R/E27Q): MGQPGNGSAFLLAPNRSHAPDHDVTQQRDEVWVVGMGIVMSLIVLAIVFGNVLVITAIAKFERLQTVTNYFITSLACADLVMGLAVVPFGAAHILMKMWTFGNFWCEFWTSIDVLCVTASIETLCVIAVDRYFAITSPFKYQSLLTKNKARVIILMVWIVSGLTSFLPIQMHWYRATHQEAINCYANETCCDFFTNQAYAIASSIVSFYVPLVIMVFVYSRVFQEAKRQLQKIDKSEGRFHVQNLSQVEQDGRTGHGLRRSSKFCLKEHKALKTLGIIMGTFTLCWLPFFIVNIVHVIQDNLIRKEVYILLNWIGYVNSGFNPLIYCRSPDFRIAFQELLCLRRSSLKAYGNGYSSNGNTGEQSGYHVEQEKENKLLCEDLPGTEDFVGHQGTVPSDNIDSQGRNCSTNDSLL
Text: as §1
The primer which added a restriction enzyme recognition region to 5′ end was designed on the basis of the base information that is registered with GenBank/EMBL data base as Accession No. M15169, and the clone was obtained by performance of PCR using human bladder origin cDNA as a template. The clone was inserted into pGEM-T vector and was amplified in Escherichia coli bacteria as a plasmid, and it was purified and the sequence of full length and around of insertion sequence determined by means of 310 Genetic Analyzer (ABI).
2) Preparation of Human β2-Adreoceptor Expressed Cells
as §2, with “(80” for “(320”, “expression” for “expression which was”
as §3, §4, §5

EC50 [1] [nM] | Emax [1] [%] | EC50 [2] [nM] | Emax [2] [%] | Emax [3] [%] | EC50 [3] [nM] | SMILES
1670 | 85 | 19.3 | 112 | 27 | – | CCOc1cc(-c2ccc(OCCNC[C@H](O)c3ccc(O)c(NS(C)(=O)=O)c3)cc2)ccc1C(=O)O [Compound 28, 3-Ethoxy-4′-{2-[(R)-2-hydroxy-2-(4-hydroxy-3-methanesulfonylaminophenyl)ethylamino]ethoxy}biphenyl-4-carboxylic acid]
742 | 60 | – | 27 | 15 | – | O=C(O)c1cccc(-c2cccc(OCCNC[C@H](O)c3cccc(Cl)c3)c2)c1 [comparison, reference compound]
9330 | 86 | 57.1 | 154 | 61 | 4490 | CS(=O)(=O)Nc1cc([C@@H](O)CNCCOc2ccc(-c3ccc(C(=O)O)c(C(=O)O)c3)cc2)ccc1O [Compound 21, 4′-{2-[(R)-2-Hydroxy-2-(4-hydroxy-3-methanesulfonylaminophenyl)ethylamino]ethoxy}biphenyl-3,4-dicarboxylic acid]
– | 49 | 14.2 | 222 | 60 | 200 | Cc1cc(-c2ccc(OCC(=O)O)cc2)cc(C)c1OCCN[C@@H](C)[C@H](O)c1ccc(O)c(NS(C)(=O)=O)c1 [Compound 9, (4′-{2-[(1S,2R)-2-Hydroxy-2-(4-hydroxy-3-methanesulfonylaminophenyl)-1-methylethylamino]ethoxy}-3′,5′-dimethylbiphenyl-4-yloxy)acetic acid]
